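Cultured in 96-well plates, cells were exposed to test compound for 48 hours across five concentrations. TGI: total growth inhibition.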
What was measured:
Assay in all cases: NCI tumour cell line growth inhibition, 48 h
[1] = system: SF-295 CNS
[2] = system: MDA-N
[3] = system: OVCAR-3 ovarian
[4] = system: PC-3 prostate
[5] = system: MDA-MB-435
[6] = system: MDA-MB-231 breast
[7] = system: HCC-2998 colon
[8] = system: RPMI-8226 leukemia
[9] = system: CAKI-1 renal
[10] = system: IGROV1 ovarian
[11] = system: HT29 colon
[12] = system: SF-268 CNS
[13] = system: KM12 colon
[14] = system: MOLT-4 leukemia
[15] = system: EKVX NSCLC
[16] = system: HOP-92 NSCLC
[17] = system: OVCAR-4 ovarian
[18] = system: UACC-62 melanoma
[19] = system: DU-145 prostate
[20] = system: HS 578T breast
[21] = system: M14 melanoma
[22] = system: 786-0 renal
[23] = system: LOX IMVI melanoma
[24] = system: U251 CNS
[25] = system: A549 NSCLC
[26] = system: SK-OV-3 ovarian
[27] = system: MCF7 breast
[28] = system: OVCAR-5 ovarian
[29] = system: NCI-H226 lung
[30] = system: NCI-H23 lung
[31] = system: SK-MEL-28 melanoma
[32] = system: RXF 393 renal
[33] = system: UACC-257 melanoma
[34] = system: K-562 leukemia
[35] = system: HCT-116 colon
[36] = system: SW-620 colon
[37] = system: SK-MEL-5 melanoma
[38] = system: HOP-62 NSCLC
[39] = system: NCI/ADR-RES ovarian
[40] = system: CCRF-CEM leukemia
[41] = system: ACHN renal
[42] = system: T-47D breast
[43] = system: COLO 205 colon
[44] = system: TK-10 renal
[45] = system: A498 renal
[46] = system: SK-MEL-2 melanoma
[47] = system: HL-60(TB) leukemia
[48] = system: SR leukemia
[49] = system: UO-31 renal
[50] = system: SN12C renal
[51] = system: NCI-H522 lung
[52] = system: BT-549 breast
[53] = system: SF-539 CNS
[54] = system: SNB-19 CNS
[55] = system: NCI-H460 lung
[56] = system: HCT-15 colon
[57] = system: OVCAR-8 ovarian
[58] = system: SNB-75 CNS
[59] = system: MALME-3M melanoma

Work on `COC(=O)[C@]1(CCC(C)=O)C(=O)C=CN([C@H](C)c2ccccc2)[C@@H]1Cc1ccc(OC)c(OCc2ccccc2)c1I` yielded a TGI [1] of 35.2 µM, a TGI [2] of 41.3 µM and a TGI [3] of 31 µM. The TGI [4] was 74.5 µM, the TGI [5] was 42.9 µM and the TGI [6] was 35.7 µM. The TGI [7] was 29.2 µM, the TGI [8] was 51.7 µM and the TGI [9] was > 100 µM. It also gave a TGI [10] of 29.1 µM, a TGI [11] of 31.8 µM and a TGI [12] of 38.7 µM. The TGI [13] was 43.1 µM, the TGI [14] was > 100 µM and the TGI [15] was > 100 µM. For the same compound, the TGI [16] was 21.3 µM, the TGI [17] was > 100 µM and the TGI [18] was 29.2 µM. For the same compound, the TGI [19] was 37.5 µM, the TGI [20] was 79.4 µM and the TGI [21] was 28.2 µM. It also gave a TGI [22] of 34.9 µM, a TGI [23] of 31 µM and a TGI [24] of 33.9 µM. For the same compound, the TGI [25] was 73.5 µM, the TGI [26] was > 100 µM and the TGI [27] was 46.2 µM. It also gave a TGI [28] of 63.8 µM, a TGI [29] of 34.3 µM and a TGI [30] of 49.6 µM. The TGI [31] was > 100 µM, the TGI [32] was 23.6 µM and the TGI [33] was 32.6 µM. The TGI [34] was > 100 µM, the TGI [35] was 27 µM and the TGI [36] was > 100 µM. For the same compound, the TGI [37] was 26.9 µM, the TGI [38] was 51.7 µM and the TGI [39] was 62.8 µM. For the same compound, the TGI [40] was > 100 µM, the TGI [41] was 71.8 µM and the TGI [42] was 49.4 µM. It also gave a TGI [43] of 47.7 µM, a TGI [44] of 56.8 µM and a TGI [45] of 50.1 µM. The TGI [46] was 31.7 µM, the TGI [47] was 69.8 µM and the TGI [48] was > 100 µM. It also gave a TGI [49] of 31.6 µM, a TGI [50] of 35 µM and a TGI [51] of 41.6 µM. For the same compound, the TGI [52] was 46.3 µM, the TGI [53] was 32.9 µM and the TGI [54] was 81.8 µM. It also gave a TGI [55] of 30.7 µM, a TGI [56] of 43.5 µM and a TGI [57] of 85.2 µM.
Compound `CCOC(=O)n1c(=O)nc2c3c(ncn21)Oc1c(c(-c2ccccc2)nn1-c1ccccc1)C3c1ccc(Cl)cc1` (centres undefined) has a TGI [1] of 3.26 µM, a TGI [2] of 3.01 µM and a TGI [3] of 2.79 µM. It also gave a TGI [4] of 3.1 µM, a TGI [58] of 4.75 µM and a TGI [5] of 3.03 µM. It also gave a TGI [6] of 2.7 µM, a TGI [7] of 1.97 µM and a TGI [8] of 3.3 µM. The TGI [9] was 2.96 µM, the TGI [11] was 3.12 µM and the TGI [12] was 2.92 µM. It also gave a TGI [13] of 2.89 µM, a TGI [16] of 2.85 µM and a TGI [17] of 2.47 µM. It also gave a TGI [18] of 3.1 µM, a TGI [59] of 3.24 µM and a TGI [19] of 3.09 µM. The TGI [20] was 3.37 µM, the TGI [21] was 3.33 µM and the TGI [22] was 2.85 µM. For the same compound, the TGI [23] was 2.78 µM, the TGI [24] was 3.06 µM and the TGI [25] was 3.01 µM. It also gave a TGI [26] of 6.47 µM, a TGI [27] of 2.9 µM and a TGI [28] of 3.53 µM. It also gave a TGI [29] of 2.99 µM, a TGI [30] of 3.17 µM and a TGI [31] of 3.18 µM. The TGI [32] was 2.91 µM, the TGI [33] was 3.42 µM and the TGI [34] was 2.41 µM. It also gave a TGI [35] of 2.82 µM, a TGI [36] of 3.09 µM and a TGI [37] of 3.07 µM. The TGI [38] was 3.15 µM, the TGI [39] was 3.11 µM and the TGI [40] was 2.72 µM. For the same compound, the TGI [41] was 3.09 µM, the TGI [42] was 3.15 µM and the TGI [43] was 2.59 µM. The TGI [44] was 3.07 µM, the TGI [45] was 3.85 µM and the TGI [46] was 3.23 µM. For the same compound, the TGI [47] was 2.78 µM, the TGI [48] was 3.5 µM and the TGI [49] was 2.85 µM. It also gave a TGI [50] of 3.21 µM, a TGI [51] of 3.11 µM and a TGI [52] of 2.95 µM. For the same compound, the TGI [53] was 2.9 µM, the TGI [54] was 2.95 µM and the TGI [55] was 3.21 µM. For the same compound, the TGI [56] was 2.4 µM and the TGI [57] was 3.06 µM.
In the case of `NS(=O)(=O)c1ccc(NCc2cccc3c(=O)c4ccc(Cl)cc4oc23)cc1`, the TGI [1] is reported as > 100 µM, the TGI [2] is reported as > 80.2 µM and the TGI [3] is reported as > 100 µM. For the same compound, the TGI [4] was > 100 µM, the TGI [58] was > 96.6 µM and the TGI [5] was > 100 µM. For the same compound, the TGI [6] was > 100 µM, the TGI [7] was > 100 µM and the TGI [8] was > 92.2 µM. The TGI [9] was > 85.7 µM, the TGI [10] was > 68.8 µM and the TGI [11] was > 100 µM. The TGI [12] was 64.4 µM, the TGI [13] was > 70.7 µM and the TGI [14] was > 100 µM. The TGI [15] was > 65.5 µM, the TGI [16] was 57 µM and the TGI [17] was > 100 µM. For the same compound, the TGI [18] was > 100 µM, the TGI [59] was > 66.5 µM and the TGI [19] was > 100 µM. For the same compound, the TGI [20] was 82.3 µM, the TGI [21] was > 93.1 µM and the TGI [22] was > 100 µM. For the same compound, the TGI [23] was > 100 µM, the TGI [24] was > 100 µM and the TGI [25] was > 100 µM. For the same compound, the TGI [26] was > 100 µM, the TGI [27] was > 67 µM and the TGI [28] was > 100 µM. The TGI [29] was > 100 µM, the TGI [30] was > 80 µM and the TGI [31] was > 100 µM. The TGI [32] was > 100 µM, the TGI [33] was > 100 µM and the TGI [34] was > 100 µM. The TGI [35] was > 100 µM, the TGI [36] was > 100 µM and the TGI [37] was > 100 µM. For the same compound, the TGI [38] was > 100 µM, the TGI [39] was > 100 µM and the TGI [40] was > 52.6 µM. The TGI [41] was > 100 µM, the TGI [42] was > 100 µM and the TGI [43] was > 100 µM. The TGI [44] was > 100 µM, the TGI [45] was > 100 µM and the TGI [46] was > 100 µM. For the same compound, the TGI [47] was 9.47 µM, the TGI [48] was > 51.3 µM and the TGI [49] was > 93.2 µM. The TGI [50] was > 100 µM, the TGI [51] was 99.7 µM and the TGI [52] was > 96.7 µM. The TGI [53] was > 64.6 µM, the TGI [54] was > 61.8 µM and the TGI [56] was > 100 µM. The TGI [57] was > 67.2 µM.
Work on `CCN(CC)CCN1C(=O)c2cccc3cc(N)cc(c23)C1=O` yielded a TGI [1] of 32.5 µM, a TGI [2] of 23.8 µM and a TGI [3] of 44.3 µM. The TGI [4] was > 100 µM, the TGI [58] was 37.1 µM and the TGI [5] was 22.2 µM. For the same compound, the TGI [6] was 51.9 µM, the TGI [7] was 21.7 µM and the TGI [8] was 39.8 µM. The TGI [9] was > 100 µM, the TGI [10] was > 100 µM and the TGI [11] was 18.1 µM. The TGI [12] was > 100 µM, the TGI [13] was 66.9 µM and the TGI [14] was > 100 µM. The TGI [15] was 22.8 µM, the TGI [16] was > 100 µM and the TGI [17] was 48.3 µM. For the same compound, the TGI [18] was 24.6 µM, the TGI [59] was 26.1 µM and the TGI [19] was > 100 µM. For the same compound, the TGI [20] was > 100 µM, the TGI [21] was 32.1 µM and the TGI [22] was > 100 µM. For the same compound, the TGI [24] was > 100 µM, the TGI [25] was > 100 µM and the TGI [26] was 69.3 µM. The TGI [27] was > 100 µM, the TGI [28] was 15.7 µM and the TGI [29] was 36.6 µM. It also gave a TGI [30] of 20.3 µM, a TGI [31] of 36.1 µM and a TGI [32] of 34.1 µM. It also gave a TGI [33] of 25.7 µM, a TGI [34] of 44.2 µM and a TGI [35] of 38.5 µM. It also gave a TGI [36] of 83.3 µM, a TGI [37] of 26.6 µM and a TGI [38] of 40.3 µM. For the same compound, the TGI [39] was 58.8 µM, the TGI [40] was > 100 µM and the TGI [41] was > 100 µM. For the same compound, the TGI [42] was > 100 µM, the TGI [43] was 16.8 µM and the TGI [44] was > 100 µM. For the same compound, the TGI [45] was 57.5 µM, the TGI [46] was 37.6 µM and the TGI [47] was 50.5 µM. The TGI [48] was 39.8 µM, the TGI [49] was 66.8 µM and the TGI [50] was 27.1 µM. The TGI [51] was 21.8 µM, the TGI [52] was 40.4 µM and the TGI [53] was 20.4 µM. The TGI [54] was > 100 µM, the TGI [55] was 18.2 µM and the TGI [56] was > 100 µM. For the same compound, the TGI [57] was > 100 µM.
